# The source made the active and inactive calls.
# Columns and labels:
# [1] = target: Glyceraldehyde-3-phosphate dehydrogenase (Homo sapiens, UniProt P04406)
# [2] = target: T1, Alkaline phosphatase, tissue-nonspecific isozyme (Homo sapiens, UniProt P05186); test: potency against alkaline phosphatase TNAP – biochemical, luminescent, dose response, SAR follow-up (AID 1056)
# T1 sequence (P05186 whole entry): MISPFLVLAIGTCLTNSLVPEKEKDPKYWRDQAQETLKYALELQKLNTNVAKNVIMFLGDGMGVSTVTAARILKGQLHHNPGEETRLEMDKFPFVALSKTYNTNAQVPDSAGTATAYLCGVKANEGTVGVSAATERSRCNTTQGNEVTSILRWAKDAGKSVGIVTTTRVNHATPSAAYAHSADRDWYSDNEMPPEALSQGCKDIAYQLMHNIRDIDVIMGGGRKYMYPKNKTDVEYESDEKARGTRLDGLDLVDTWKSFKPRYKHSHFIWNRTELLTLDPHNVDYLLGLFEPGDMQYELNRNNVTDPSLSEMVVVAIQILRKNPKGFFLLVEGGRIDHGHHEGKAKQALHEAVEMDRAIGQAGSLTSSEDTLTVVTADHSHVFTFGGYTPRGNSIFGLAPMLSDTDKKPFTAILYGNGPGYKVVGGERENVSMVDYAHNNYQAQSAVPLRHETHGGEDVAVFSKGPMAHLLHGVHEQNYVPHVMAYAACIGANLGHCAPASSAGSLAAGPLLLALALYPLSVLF
# [3] = target: T2, Microphthalmia-associated transcription factor (Homo sapiens, UniProt O75030); test: reducers of TRPM1 reporter luminescence, concentration series – cell-based, SK-MEL-5, cherry-picked, set 3, MITF inhibitor project, dose response (AID 493073); assay type: functional;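 further: SK-MEL-5 melanoma cells with luciferase driven by the MITF target TRPM1 promoter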
# T2 sequence (O75030 whole entry): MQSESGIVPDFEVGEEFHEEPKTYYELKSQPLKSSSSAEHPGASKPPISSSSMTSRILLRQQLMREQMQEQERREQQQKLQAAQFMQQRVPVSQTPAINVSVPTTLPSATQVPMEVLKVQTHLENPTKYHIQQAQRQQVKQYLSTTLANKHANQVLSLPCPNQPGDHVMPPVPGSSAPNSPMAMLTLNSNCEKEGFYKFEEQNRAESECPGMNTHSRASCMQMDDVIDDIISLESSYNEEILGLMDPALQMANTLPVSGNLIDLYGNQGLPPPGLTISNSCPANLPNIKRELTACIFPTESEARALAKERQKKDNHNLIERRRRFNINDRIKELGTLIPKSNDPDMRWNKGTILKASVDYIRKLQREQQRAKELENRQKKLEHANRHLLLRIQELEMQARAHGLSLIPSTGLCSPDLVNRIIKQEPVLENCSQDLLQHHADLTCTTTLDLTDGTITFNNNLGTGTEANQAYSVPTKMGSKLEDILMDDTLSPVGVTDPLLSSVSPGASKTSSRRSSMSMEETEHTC
# [4] = test system: A-375; test: proliferation inhibition in MITF-low A375 cells – cell-based, cherry-pick samples, set 2, counter-screen for MITF modulator project, dose response (AID 540335); assay type: functional; conditions: Homo sapiens
# [5] = target: G-protein coupled receptor 55 (Homo sapiens, UniProt Q9Y2T6); test: inhibition of LPI-stimulated GPR55 beta-arrestin translocation – imaging, U2OS, beta-arrestin-GFP, LPI agonist, primary screen (AID 2013); assay type: functional;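 further: antagonist potency measured as reduced agonist-driven arrestin aggregation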
# [6] = target: T3, RNA-binding protein pos-1 (Caenorhabditis elegans, UniProt G5EF15); test: disruptors of C. elegans POS-1 RNA interaction – biochemical, fluorescence polarization, dose response (AID 1964);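 further: purified POS-1 fused to maltose binding protein made in E. coli; potency of compounds blocking POS-1 binding to fluorescent RNA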
# T3 sequence (G5EF15 whole entry): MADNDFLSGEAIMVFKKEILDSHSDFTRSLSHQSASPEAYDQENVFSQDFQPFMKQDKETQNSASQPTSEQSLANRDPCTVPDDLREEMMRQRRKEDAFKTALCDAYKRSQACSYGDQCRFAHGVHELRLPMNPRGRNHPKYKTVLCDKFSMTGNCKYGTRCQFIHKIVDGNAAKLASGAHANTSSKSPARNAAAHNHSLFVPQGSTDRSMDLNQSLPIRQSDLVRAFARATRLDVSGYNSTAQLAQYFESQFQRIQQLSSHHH
# [7] = target: T4, Zinc finger protein mex-5 (Caenorhabditis elegans, UniProt Q9XUB2); test: potency of MEX-5 RNA-binding blockers – biochemical, C. elegans, fluorescence polarization, dose response (AID 1960)
# T4 sequence (Q9XUB2 whole entry): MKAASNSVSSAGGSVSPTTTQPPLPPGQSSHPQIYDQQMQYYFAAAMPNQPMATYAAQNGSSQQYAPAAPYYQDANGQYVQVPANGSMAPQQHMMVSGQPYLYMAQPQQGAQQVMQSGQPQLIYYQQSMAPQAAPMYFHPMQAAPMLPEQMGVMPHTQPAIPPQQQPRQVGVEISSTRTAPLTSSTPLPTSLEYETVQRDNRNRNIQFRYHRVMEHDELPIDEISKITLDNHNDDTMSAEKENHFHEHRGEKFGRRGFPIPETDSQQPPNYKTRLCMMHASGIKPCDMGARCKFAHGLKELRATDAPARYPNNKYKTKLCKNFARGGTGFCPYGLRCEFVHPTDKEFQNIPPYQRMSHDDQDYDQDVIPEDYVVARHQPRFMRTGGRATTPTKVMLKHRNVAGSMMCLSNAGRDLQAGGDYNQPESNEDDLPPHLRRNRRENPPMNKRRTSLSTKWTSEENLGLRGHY
# [8] = target: Troponin, cardiac muscle (Homo sapiens, UniProt P19429+P45379+P63316); test: Fluorescence-based biochemical high throughput dose response assay for activators of the calcium sensitivity of cardiac Regulated Thin Filaments (RTF). [Related pubchem assays (depositor defined):AID493008, AID493018, AID504382, AID504383]; assay type: protein-complex assay
# [9] = Luminescence Cell-Based Dose Response HTS to Identify Activators of Luciferase Translation or Activity in H4 […] Cells. [Related pubchem assays: 1829 (Project Summary), 1814 (Primary HTS)]; assay type: functional
# [10] = test system: H4; test: Luminescence Cell-Based Dose Response HTS to Identify Activators of 5'UTR Stem-Loop Driven Prion Protein mRNA Translation in H4 Neuroglioblastoma Cells. [Related pubchem assays: 1829 (Project Summary), 1814 (Primary HTS)]; assay type: functional; conditions: Homo sapiens
# [11] = target: DNA damage-inducible transcript 3 protein (Mus musculus, UniProt P35639); assay type: functional, Cricetulus griseus
# [12] = target: T5, X-box-binding protein 1 (Homo sapiens, UniProt P17861); assay type: functional, Cricetulus griseus;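 further: confirmatory dose-response counter-screen serving a CHOP assay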
# T5 sequence (P17861 whole entry): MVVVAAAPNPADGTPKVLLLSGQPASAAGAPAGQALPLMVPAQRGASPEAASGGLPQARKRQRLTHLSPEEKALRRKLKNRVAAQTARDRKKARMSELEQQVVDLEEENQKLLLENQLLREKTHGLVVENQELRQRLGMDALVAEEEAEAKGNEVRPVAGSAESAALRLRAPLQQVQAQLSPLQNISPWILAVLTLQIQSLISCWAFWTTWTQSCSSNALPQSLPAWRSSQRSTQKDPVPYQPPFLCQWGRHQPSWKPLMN
# [13] = test system: HeLa; test: ATP-based viability loss in HeLa cells – cell-based, CellTiter-Glo luminescence, cherry-pick samples, cytotoxicity control for MITF activator project, dose response (AID 540259); assay type: functional; conditions: Homo sapiens
# [14] = viability of uninfected HEp-2 cells – cell-based, HTS, cytotoxicity control for RSV inhibitor project, dose response (AID 2410); assay type: functional; conditions: human respiratory syncytial virus
# [15] = test system: Vero; test: cells; assay type: functional, cell-based; conditions: Chlorocebus sabaeus
# [16] = test system: Vero; test: cells; assay type: functional; conditions: Chlorocebus sabaeus
# [17] = target: Tumor necrosis factor (Homo sapiens, UniProt P01375); test: analog potency on TNFa NF-kB signaling – cell-based, revised, SAR follow-up (AID 2337); assay type: functional
# [18] = target: T6, Nucleotide-binding oligomerization domain-containing protein 1 (Homo sapiens, UniProt Q9Y239); test: blockers of NOD1 pathway activity – revised, SAR follow-up (AID 2333); assay type: functional
# T6 sequence (Q9Y239 whole entry): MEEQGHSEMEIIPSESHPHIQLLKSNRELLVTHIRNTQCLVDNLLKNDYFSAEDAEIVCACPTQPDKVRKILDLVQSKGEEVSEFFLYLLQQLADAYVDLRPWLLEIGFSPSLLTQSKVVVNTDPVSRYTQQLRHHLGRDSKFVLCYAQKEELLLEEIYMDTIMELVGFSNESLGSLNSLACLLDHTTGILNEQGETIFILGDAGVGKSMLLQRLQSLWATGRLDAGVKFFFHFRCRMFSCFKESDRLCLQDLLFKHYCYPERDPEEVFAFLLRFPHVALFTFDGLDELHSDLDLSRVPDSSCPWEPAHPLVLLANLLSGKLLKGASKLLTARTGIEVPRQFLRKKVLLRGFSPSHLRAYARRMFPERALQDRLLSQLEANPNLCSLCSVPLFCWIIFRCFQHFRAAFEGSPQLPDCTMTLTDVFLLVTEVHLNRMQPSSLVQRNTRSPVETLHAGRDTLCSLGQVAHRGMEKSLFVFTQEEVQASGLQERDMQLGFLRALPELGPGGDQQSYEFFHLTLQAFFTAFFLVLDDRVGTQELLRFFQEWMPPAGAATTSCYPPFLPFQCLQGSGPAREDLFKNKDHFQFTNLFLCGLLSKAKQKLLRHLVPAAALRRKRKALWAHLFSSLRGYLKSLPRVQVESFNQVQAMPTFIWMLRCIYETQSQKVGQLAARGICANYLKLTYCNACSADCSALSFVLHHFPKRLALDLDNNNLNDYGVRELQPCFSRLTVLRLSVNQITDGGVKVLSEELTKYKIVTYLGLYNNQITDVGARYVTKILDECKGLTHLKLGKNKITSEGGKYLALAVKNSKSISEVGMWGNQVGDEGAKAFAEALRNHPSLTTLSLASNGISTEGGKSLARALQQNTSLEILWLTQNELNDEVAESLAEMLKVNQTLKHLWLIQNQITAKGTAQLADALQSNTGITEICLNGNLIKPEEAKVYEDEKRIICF
# [19] = target: Nucleotide-binding oligomerization domain-containing protein 2 (Homo sapiens, UniProt Q9HC29); test: PubChem AID 2334; assay type: functional
# [20] = test system: HEK293; test: cells; conditions: Homo sapiens;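 further: cells exposed to compound for 14 hours overnight before viability readout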
# [21] = target: DNA dC->dU-editing enzyme APOBEC-3G (Homo sapiens, UniProt Q9HC16); test: Dose Response confirmation of small molecule APOBEC3G DNA Deaminase Inhibitors via a fluorescence-based single-stranded DNA deaminase assay. [Related pubchem assays (depositor defined):AID493012, AID493028]; assay type: functional
# [22] = target: FAD-linked sulfhydryl oxidase ALR (Homo sapiens, UniProt P55789); test: ALR-catalysed DTT oxidation blockers – biochemical, H2O2 detection, luminescence, cherry-pick, dose response (AID 493248)
# [23] = target: T7, Mannose-6-phosphate isomerase (Homo sapiens, UniProt P34949); test: MPI inhibition at elevated mannose 6-phosphate – biochemical, fluorescence intensity, high mannose 6-phosphate, primary screen (AID 1220)
# T7 sequence (P34949 whole entry): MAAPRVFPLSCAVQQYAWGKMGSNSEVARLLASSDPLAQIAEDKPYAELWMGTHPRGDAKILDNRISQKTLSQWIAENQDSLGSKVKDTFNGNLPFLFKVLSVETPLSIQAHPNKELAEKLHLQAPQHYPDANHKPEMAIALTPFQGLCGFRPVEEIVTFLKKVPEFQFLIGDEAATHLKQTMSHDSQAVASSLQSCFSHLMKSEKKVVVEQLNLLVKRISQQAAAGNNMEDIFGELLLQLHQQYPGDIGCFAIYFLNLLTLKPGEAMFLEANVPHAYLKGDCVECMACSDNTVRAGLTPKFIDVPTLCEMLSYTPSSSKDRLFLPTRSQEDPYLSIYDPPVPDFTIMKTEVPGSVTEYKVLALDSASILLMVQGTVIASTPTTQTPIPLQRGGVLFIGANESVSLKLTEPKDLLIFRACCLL
# [24] = target: Dual specificity tyrosine-phosphorylation-regulated kinase 1A (Rattus norvegicus, UniProt Q63470); assay type: biochemical, Homo sapiens
structure (smiles),measurement,setting,value
COc1ccc(Br)cc1S(=O)(=O)Nc1ccc2ncccc2c1,IC50,[1],> 100 µM (not active)
same,IC50,[2],> 100 µM (inactive)
CCOc1c(Br)cc(CNC2CCCCCCC2)cc1OC,AC50,[3],20.5 µM (active)
same,AC50,[4],21.9 µM (active)
Cc1ccc(CNCc2cc3c(C(C)(C)C)nn(-c4ccccc4)c3[nH]c2=O)cc1,IC50,[5],1.92 µM (active)
CC(C)c1cc(C(C)C)c(S(=O)(=O)Nc2cnc3ccccc3c2)c(C(C)C)c1,IC50,[1],> 100 µM (not active)
same,IC50,[2],> 100 µM (inactive)
CN(C)CCN(C)Cc1c2ccccc2c(CN(C)CCN(C)C)c2ccccc12,EC50,[6],12.1 µM (active)
same,EC50,[7],10.2 µM (active)
same,EC50,[8],34.3 µM (inactive)
Cc1cc2c([nH]c3ccccc32)c2c1OC(C)(C)C=C2 [GRINIMIBINE],EC50,[9],27.7 µM (active)
same,EC50,[10],20.6 µM (active)
same,Absolute IC50 (CHOP),[11],10 µM
same,Absolute IC50 (XBP1),[12],10 µM
same,AC50,[13],41.3 µM (active)
Cn1c(=O)n(C/C=C/c2ccccc2)c(=O)c2c1nc1n2CCCN1c1ccc(F)cc1,IC50,[5],0.624 µM (active)
Cc1csc(NC(=O)Cc2coc3cc(C)c(C(C)C)cc23)n1,CC50,[14],6.08 µM (active)
same,IC50,[15],9.7 µM (active)
same,CC50,[16],23 µM (active)
O=C(NC1CCCc2c1cnn2-c1ccccc1F)c1ccnn1-c1ccccc1 (stereo unspecified),IC50,[17],> 20 µM (inactive)
same,IC50,[18],> 20 µM (inactive)
same,IC50,[19],> 20 µM (inactive)
same,IC50,[20],> 20 µM (inactive)
O=C(NCc1ccc(Cl)cc1)C1CCN(c2cnccn2)CC1,EC50,[8],> 71.4 µM (inactive)
Cc1n[nH]c(NC=C2C(=O)CC(c3ccco3)CC2=O)c1-c1ccc(Cl)cc1 (stereo unspecified),Absolute IC50 (CHOP),[11],10 µM
same,Absolute IC50 (XBP1),[12],10 µM
CC(NC(=O)c1ccc([N+](=O)[O-])o1)C1CC2CCC1C2 (stereo unspecified),IC50,[15],> 25 µM (active)
same,CC50,[16],19.9 µM (active)
O=C(NC1CCCc2c1cnn2-c1ccccc1F)c1cc(-c2ccccc2)n[nH]1 (stereo unspecified),IC50,[17],10.7 µM (active)
same,IC50,[18],16.9 µM (active)
same,IC50,[19],> 20 µM (inactive)
same,IC50,[20],> 20 µM (inactive)
Sc1nnc(-c2ccccn2)n1/N=C/c1cccc2ccccc12,IC50,[21],2.35 µM (active)
same,AC50,[22],10.8 µM (active)
COc1ccc(NC(S)=Nc2cccc3cnccc23)cc1,IC50,[23],> 50 µM (not active)
same,AC50,[24],7.84 µM (active)
